From PubChem BioAssay AID250 (DTP/NCI, 2004)
Where “and” joins values, the source holds several entries; their conditions need not be identical. Equal entries are not always repeated. Inconclusive results and toxic doses are left out.

Test system: BDF1 mice, L1210 leukemia sc, survival T/C
Test: NCI In Vivo Anticancer Drug Screen. Data for tumor model L1210 Leukemia (subcutaneous) in B6D2F1 (BDF1) mice
Details: endpoint: median survival time, vehicle: water, higher = longer survival
How it was run: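 Transplantable tumor-bearing mice; survival or tumor size recorded; result = T/C, treated vs vehicle control.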

## O=P1(NCCCl)OCCCN1CCCl (centres undefined)
dose: 7.8 mg/kg/injection, schedule: Q03HX008 (ip)
  T/C: 166 % of control
dose: 7.8 mg/kg/injection, schedule: Q03HX008 (sc)
  T/C: 111 % of control
dose: 15.62 mg/kg/injection, schedule: Q03HX008 (ip)
  T/C: 155 % of control
dose: 15.62 mg/kg/injection, schedule: Q03HX008 (sc)
  T/C: 122 % of control
dose: 23.0 mg/kg/injection, schedule: Q03HX008 (sc)
  T/C: 178 % of control
dose: 31.25 mg/kg/injection, schedule: Q03HX008 (ip)
  T/C: 166 % of control
dose: 31.25 mg/kg/injection, schedule: Q03HX008 (sc)
  T/C: 166 % of control
dose: 39.0 mg/kg/injection, schedule: Q01DX009 (sc)
  T/C: 168 % of control
dose: 39.0 mg/kg/injection, schedule: Q01DX015 (ip)
  T/C: 194 % of control and 197 % of control
dose: 39.0 mg/kg/injection, schedule: Q03HX008 (sc)
  T/C: 210 % of control
dose: 62.5 mg/kg/injection, schedule: Q03HX008 (ip)
  T/C: 611 % of control
dose: 62.5 mg/kg/injection, schedule: Q03HX008 (sc)
  T/C: 611 % of control
dose: 65.0 mg/kg/injection, schedule: Q01DX009 (sc)
  T/C: 189 % of control
dose: 65.0 mg/kg/injection, schedule: Q01DX015 (ip)
  T/C: 236 % of control
dose: 65.0 mg/kg/injection, schedule: Q03HX008 (sc)
  T/C: 278 % of control
dose: 108.0 mg/kg/injection, schedule: Q01DX001 (sc)
  T/C: 111 % of control and 114 % of control
dose: 108.0 mg/kg/injection, schedule: Q01DX009 (sc)
  T/C: 236 % of control
dose: 108.0 mg/kg/injection, schedule: Q01DX015 (ip)
  T/C: 178 % of control and 187 % of control
dose: 108.0 mg/kg/injection, schedule: Q03HX008 (sc)
  T/C: 115 % of control
dose: 108.0 mg/kg/injection, schedule: Q07DX003 (ip)
  T/C: 210 % of control and 218 % of control
dose: 108.0 mg/kg/injection, schedule: Q08DX002 (sc)
  T/C: 173 % of control
dose: 108.0 mg/kg/injection, schedule: Q09DX003 (sc)
  T/C: 154 % of control and 155 % of control
dose: 125.0 mg/kg/injection, schedule: Q01DX001 (ip)
  T/C: 155 % of control
dose: 125.0 mg/kg/injection, schedule: Q01DX001 (sc)
  T/C: 150 % of control
dose: 130.0 mg/kg/injection, schedule: Q01DX001 (sc)
  T/C: 154 % of control and 157 % of control
dose: 130.0 mg/kg/injection, schedule: Q04DX003 (sc)
  T/C: 189 % of control and 197 % of control
dose: 180.0 mg/kg/injection, schedule: Q01DX001 (ip)
  T/C: 183 % of control and 184 % of control
dose: 180.0 mg/kg/injection, schedule: Q01DX015 (ip)
  T/C: 156 % of control and 157 % of control
dose: 180.0 mg/kg/injection, schedule: Q03HX008 (sc)
  T/C: 105 % of control
dose: 180.0 mg/kg/injection, schedule: Q07DX003 (ip)
  T/C: 252 % of control and 253 % of control
dose: 180.0 mg/kg/injection, schedule: Q08DX002 (sc)
  T/C: 215 % of control
dose: 180.0 mg/kg/injection, schedule: Q09DX003 (sc)
  T/C: 244 % of control and 245 % of control
dose: 216.0 mg/kg/injection, schedule: Q01DX001 (sc)
  T/C: 184 % of control and 185 % of control
dose: 216.0 mg/kg/injection, schedule: Q04DX003 (sc)
  T/C: 210 % of control and 216 % of control
dose: 250.0 mg/kg/injection, schedule: Q01DX001 (ip)
  T/C: 205 % of control
dose: 250.0 mg/kg/injection, schedule: Q01DX001 (sc)
  T/C: 177 % of control
dose: 256.0 mg/kg/injection, schedule: Q01DX001 (sc)
  T/C: 192 % of control and 195 % of control
dose: 300.0 mg/kg/injection, schedule: Q01DX001 (ip)
  T/C: 205 % of control
dose: 300.0 mg/kg/injection, schedule: Q01DX009 (sc)
  T/C: 157 % of control
dose: 300.0 mg/kg/injection, schedule: Q07DX003 (ip)
  T/C: 273 % of control and 279 % of control
dose: 300.0 mg/kg/injection, schedule: Q08DX002 (sc)
  T/C: 100 % of control
dose: 300.0 mg/kg/injection, schedule: Q09DX003 (sc)
  T/C: 244 % of control and 247 % of control
dose: 320.0 mg/kg/injection, schedule: Q01DX001 (sc)
  T/C: 212 % of control and 220 % of control
dose: 360.0 mg/kg/injection, schedule: Q01DX001 (sc)
  T/C: 226 % of control and 229 % of control
dose: 360.0 mg/kg/injection, schedule: Q04DX003 (sc)
  T/C: 242 % of control
dose: 400.0 mg/kg/injection, schedule: Q01DX001 (sc)
  T/C: 235 % of control and 249 % of control
dose: 500.0 mg/kg/injection, schedule: Q01DX001 (ip)
  T/C: 242 % of control
dose: 500.0 mg/kg/injection, schedule: Q08DX002 (sc)
  T/C: 121 % of control
dose: 500.0 mg/kg/injection, schedule: Q09DX003 (sc)
  T/C: 116 % of control and 122 % of control
dose: 600.0 mg/kg/injection, schedule: Q01DX001 (sc)
  T/C: 77 % of control
dose: 600.0 mg/kg/injection, schedule: Q04DX003 (sc)
  T/C: 115 % of control and 117 % of control
dose: 625.0 mg/kg/injection, schedule: Q01DX001 (sc)
  T/C: 124 % of control
dose: 833.0 mg/kg/injection, schedule: Q01DX001 (ip)
  T/C: 71 % of control
dose: 1000.0 mg/kg/injection, schedule: Q01DX001 (sc)
  T/C: 63 % of control
